Target: T1, ERα (Homo sapiens, UniProt P03372)
T1 construct: host or cells: MCF7
T1 sequence (P03372 1-595): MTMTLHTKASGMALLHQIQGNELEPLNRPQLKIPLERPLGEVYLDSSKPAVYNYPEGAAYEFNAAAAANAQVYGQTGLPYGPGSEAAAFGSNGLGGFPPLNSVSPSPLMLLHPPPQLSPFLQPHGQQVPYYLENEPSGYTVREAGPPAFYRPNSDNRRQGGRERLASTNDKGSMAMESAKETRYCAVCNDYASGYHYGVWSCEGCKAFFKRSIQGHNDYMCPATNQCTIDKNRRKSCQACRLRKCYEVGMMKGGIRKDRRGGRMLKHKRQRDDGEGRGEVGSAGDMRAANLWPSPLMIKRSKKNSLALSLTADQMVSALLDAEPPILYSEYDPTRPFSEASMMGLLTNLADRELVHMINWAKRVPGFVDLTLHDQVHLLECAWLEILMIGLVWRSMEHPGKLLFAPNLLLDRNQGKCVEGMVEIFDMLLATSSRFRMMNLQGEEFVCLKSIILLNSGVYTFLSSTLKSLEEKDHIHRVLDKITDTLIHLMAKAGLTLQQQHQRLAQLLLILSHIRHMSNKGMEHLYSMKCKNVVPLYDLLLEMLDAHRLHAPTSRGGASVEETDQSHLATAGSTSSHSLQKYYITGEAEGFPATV
Test: Estrogen receptor degradation activity: breast cancer cell ERα in cell western assay (MCF7 cells)
Type: cell-based
Settings: 4 hours, % of ERα levels decrease relative to fulvestrant (0.1 μM) and DMSO
Procedure: Test: Estrogen Receptor Degradation Activity
Said test involves measuring the in vitro degradation activity of the compounds of the Table 1a.
The measurements of the degradation activities were made using a breast cancer cell ERα in cell western assay as described hereunder.
MCF7 cells (ATCC) were seeded in 384 wells microplate (collagen coated) at a concentration of 10000 cells/30 μL per well in red phenol free MEM alpha medium (invitrogen) containing 5% charcoal dextran striped FBS. The following day, 9 points serial 1:5 dilution of each compound was added to the cells in 2.5 μL at final concentrations ranging from 0.3-0.0000018 μM (in table 2), or 0.1 μM for fulvestrant (using as positive control). At 4 hours post compound addition the cells were fixed by adding 25 μL of formalin (final concentration 5% formalin containing 0.1% triton) for 10 minutes at room temperature and then washed twice with PBS. Then, 50 μL of LI-COR blocking buffer containing 0.1% Triton was added to plate for 30 minutes at room temperature. LI-COR blocking buffer was removed and cells were incubated overnight at cold room with 50 μL anti-ER rabbit monoclonal antibody (Thermo scientific MA1-39540) diluted at 1:1000 in LI-COR blocking buffer containing 0.1% tween-20. Wells which were treated with blocking buffer but no antibody were used as background control. Wells were washed twice with PBS (0.1% tween-20) and incubated at 37° C. for 60 minutes in LI-COR (0.1% tween-20) containing goat anti-rabbit antibody Alexa 488 (1:1000) and Syto-64 a DNA dye (2 μM final concentration). Cells were then washed 3 times in PBS and scanned in ACUMEN explorer (TTP-Labtech). Integrated intensities in the green fluorescence and red fluorescence were measured to determine the levels of ERα and DNA respectively.
The degradation activity with respect to estrogen receptors in this test is given by the concentration which degrades 50% of the estrogen receptor (or IC50) in nM.
The % of ERα levels decrease were determined as follows: % inhibition=100*(1−(sample−fulvestrant:DMSO−fulvestrant)).

Row | % Degradation At 0.3 μM | SMILES
1 | 96% | Cl.O=C(O)c1ccc2c(c1)CCCC(c1ccc(Cl)cc1Cl)=C2c1ccc(/C=C2/CCN(CCCF)C2)cc1 [Compound 1, (Z)-8-(2,4-dichlorophenyl)-9-(4-((1-(3,3-fluoropropyl)pyrrolidin-3-ylidene)methyl)phenyl)-6,7-dihydro-5H-benzo[7]annulene-3-carboxylic acid, hydrochloride]
2 | 91% | O=C(O)c1ccc2c(c1)CCCC(c1ccc(F)cc1Cl)=C2c1ccc(/C=C2/CCN(CCCF)C2)cc1 [Compound 2, (Z)-8-(2-chloro-4-fluorophenyl)-9-(4-((1-(3,3-fluoropropyl)pyrrolidin-3-ylidene)methyl)phenyl)-6,7-dihydro-5H-benzo[7]annulene-3-carboxylic acid]
3 | 95% | Cl.O=C(O)c1ccc2c(c1)OCCC(c1ccc(Cl)cc1Cl)=C2c1ccc(/C=C2/CCN(CCCF)C2)cc1 [Compound 3, (Z)-4-(2,4-dichlorophenyl)-5-(4-((1-(3-fluoropropyl)pyrrolidin-3-ylidene)methyl)phenyl)-2,3-dihydrobenzo[b]oxepine-8-carboxylic acid hydrochloride]
4 | 73% | O=C(O)c1ccc2c(c1)CCCC(c1ccc(Cl)cc1Cl)=C2c1ccc(C=C2CCN(CCC(F)F)C2)cc1 [Compound 4, (Z)-8-(2,4-dichlorophenyl)-9-(4-((1-(3,3-difluoropropyl)pyrrolidin-3-ylidene)methyl)phenyl)-6,7-dihydro-5H-benzo[7]annulene-3-carboxylic acid]
5 | 88% | Cl.O=C(O)c1ccc2c(c1)CCCC(c1ccc(F)cc1F)=C2c1ccc(/C=C2/CCN(CCC(F)F)C2)cc1 [Compound 5, (Z)-8-(2,4-difluorophenyl)-9-(4-((1-(3,3-difluoropropyl)pyrrolidin-3-ylidene)methyl)phenyl)-6,7-dihydro-5H-benzo[7]annulene-3-carboxylic acid hydrochloride]
6 | 96% | Cc1cc(F)ccc1C1=C(c2ccc(/C=C3/CCN(CCCF)C3)cc2)c2ccc(C(=O)O)cc2CCC1 [Compound 6, (Z)-8-(4-fluoro-2-methylphenyl)-9-(4-((1-(3-fluoropropyl)pyrrolidin-3-ylidene)methyl)phenyl)-6,7-dihydro-5H-benzo[7]annulene-3-carboxylic acid]
7 | 82% | FCCCN1CC/C(=C/c2ccc(C3=C(c4ccccc4Cl)CCCc4ccccc43)cc2)C1 [Compound 7, (Z)-3-(4-(8-(2-chlorophenyl)-6,7-dihydro-5H-benzo[7]annulen-9-yl)benzylidene)-1-(3-fluoropropyl)pyrrolidine]
8 | 90% | O=C(O)c1ccc2c(c1)CCCC(c1ccc(F)cc1C(F)(F)F)=C2c1ccc(/C=C2/CCN(CCCF)C2)cc1 [Compound 8, (Z)-8-(4-fluoro-2-(trifluoromethyl)phenyl)-9-(4-((1-(3-fluoropropyl)pyrrolidin-3-ylidene)methyl)phenyl)-6,7-dihydro-5H-benzo[7]annulene-3-carboxylic acid]
9 | 93% | O=C(O)c1ccc2c(c1)CCCC(c1ccc(F)cc1F)=C2c1ccc(/C=C2/CCN(CCCF)C2)cc1 [Compound 9, (Z)-8-(2,4-difluorophenyl)-9-(4-((1-(3,3-fluoropropyl)pyrrolidin-3-ylidene)methyl)phenyl)-6,7-dihydro-5H-benzo[7]annulene-3-carboxylic]
10 | 92% | Cc1c(Cl)cccc1C1=C(c2ccc(/C=C3/CCN(CCCF)C3)cc2)c2ccc(C(=O)O)cc2CCC1 [Compound 10, (Z)-8-(3-chloro-2-methylphenyl)-9-(4-((1-(3-fluoropropyl)pyrrolidin-3-ylidene)methyl)phenyl)-6,7-dihydro-5H-benzo[7]annulene-3-carboxylic acid]
11 | 93% | Cc1cccc(C2=C(c3ccc(/C=C4/CCN(CCCF)C4)cc3)c3ccc(C(=O)O)cc3CCC2)c1C(F)(F)F [Compound 11, (Z)-9-(4-((1-(3-fluoropropyl)pyrrolidin-3-ylidene)methyl)phenyl)-8-(3-methyl-2-(trifluoromethyl)phenyl)-6,7-dihydro-5H-benzo[7]annulene-3-carboxylic acid]
12 | 85% | Cc1cccc(C2=C(c3ccc(/C=C4/CCN(CCC(F)F)C4)cc3)c3ccc(C(=O)O)cc3CCC2)c1C(F)(F)F [Compound 12, (Z)-9-(4-((1-(3,3-difluoropropyl)pyrrolidin-3-ylidene)methyl)phenyl)-8-(3-methyl-2-(trifluoromethyl)phenyl)-6,7-dihydro-5H-benzo[7]annulene-3-carboxylic acid]
13 | 86% | Cc1c(Cl)cccc1C1=C(c2ccc(/C=C3/CCN(CCC(F)F)C3)cc2)c2ccc(C(=O)O)cc2CCC1 [Compound 13, (Z)-8-(3-chloro-2-methylphenyl)-9-(4-((1-(3,3-difluoropropyl)pyrrolidin-3-ylidene)methyl)phenyl)-6,7-dihydro-5H-benzo[7]annulene-3-carboxylic acid]
14 | 92% | Cc1c(C2=C(c3ccc(/C=C4/CCN(CCCF)C4)cc3)c3ccc(C(=O)O)cc3CCC2)cccc1C(F)(F)F [Compound 14, (Z)-9-(4-((1-(3-fluoropropyl)pyrrolidin-3-ylidene)methyl)phenyl)-8-(2-methyl-3-(trifluoromethyl)phenyl)-6,7-dihydro-5H-benzo[7]annulene-3-carboxylic acid]
15 | 88% | Cc1cc(F)ccc1C1=C(c2ccc(/C=C3/CCN(CCC(F)F)C3)cc2)c2ccc(C(=O)O)cc2CCC1 [Compound 15, (Z)-9-(4-((1-(3,3-difluoropropyl)pyrrolidin-3-ylidene)methyl)phenyl)-8-(4-fluoro-2-methylphenyl)-6,7-dihydro-5H-benzo[7]annulene-3-carboxylic acid]
16 | 76% | Cl.Oc1ccc2c(c1)CCCC(c1ccc(Cl)cc1Cl)=C2c1ccc(/C=C2/CCN(CCCF)C2)cc1 [Compound 16, (Z)-8-(2,4-dichlorophenyl)-9-(4-((1-(3-fluoropropyl)pyrrolidin-3-ylidene)methyl)phenyl)-6,7-dihydro-5H-benzo[7]annulen-3-ol hydrochloride]
17 | 61% | Oc1ccc2c(c1)CCCC(c1ccc(Cl)cc1Cl)=C2c1ccc(/C=C2/CCN(CCC(F)F)C2)cc1 [Compound 17, (Z)-8-(2,4-dichlorophenyl)-9-(4-((1-(3-difluoropropyl)pyrrolidin-3-ylidene)methyl)phenyl)-6,7-dihydro-5H-benzo[7]annulen-3-ol]
18 | 86% | O=C(O)c1ccc2c(c1)CCCC(c1ccc(F)cc1C(F)(F)F)=C2c1ccc(/C=C2/CCN(CCC(F)F)C2)cc1 [Compound 18, (Z)-9-(4-((1-(3,3-difluoropropyl)pyrrolidin-3-ylidene)methyl)phenyl)-8-(4-fluoro-2-(trifluoromethyl)phenyl)-6,7-dihydro-5H-benzo[7]annulene-3-carboxylic acid]
19 | 87% | Cc1c(C2=C(c3ccc(/C=C4/CCN(CCC(F)F)C4)cc3)c3ccc(C(=O)O)cc3CCC2)cccc1C(F)(F)F [Compound 19, (Z)-9-(4-((1-(3,3-difluoropropyl)pyrrolidin-3-ylidene)methyl)phenyl)-8-(2-methyl-3-(trifluoromethyl)phenyl)-6,7-dihydro-5H-benzo[7]annulene-3-carboxylic acid]
20 | 85% | Cc1cc(F)cc(C)c1C1=C(c2ccc(/C=C3/CCN(CCC(F)F)C3)cc2)c2ccc(C(=O)O)cc2CCC1 [Compound 20]
21 | 94% | Cc1cc(F)cc(C)c1C1=C(c2ccc(/C=C3/CCN(CCCF)C3)cc2)c2ccc(C(=O)O)cc2CCC1 [Compound 21, (Z)-8-(4-fluoro-2,6-dimethylphenyl)-9-(4-((1-(3-fluoropropyl)pyrrolidin-3-ylidene)methyl)phenyl)-6,7-dihydro-5H-benzo[7]annulene-3-carboxylic acid]

From patent US20250250261A1, “NOVEL SUBSTITUTED FLUORINATED VINYL-N-PROPYL-PYRROLIDINE COMPOUNDS, PROCESSES FOR THEIR PREPARATION AND THERAPEUTIC USES THEREOF” (SANOFI, priority 2022, published 2025)
